Data as given in US20090221581A1, “Methods of treating pain” (priority 2005, published 2009).

Tests used:
[1] = target: T1, CDK1/CycB (Homo sapiens, UniProt P06493); experiment: In vitro kinase inhibition assay, CDK1/CycB; assay type: biochemical
T1 construct: made in house; host or cells: Sf9 insect cells, baculovirus

[2] = target: T2, CDK5/p35NCK (Homo sapiens, UniProt Q00535); experiment: In vitro kinase inhibition assay, CDK5/p35NCK; assay type: biochemical
T2 construct: made in house; host or cells: Sf9 insect cells, baculovirus
T2 sequence (Q00535 whole entry): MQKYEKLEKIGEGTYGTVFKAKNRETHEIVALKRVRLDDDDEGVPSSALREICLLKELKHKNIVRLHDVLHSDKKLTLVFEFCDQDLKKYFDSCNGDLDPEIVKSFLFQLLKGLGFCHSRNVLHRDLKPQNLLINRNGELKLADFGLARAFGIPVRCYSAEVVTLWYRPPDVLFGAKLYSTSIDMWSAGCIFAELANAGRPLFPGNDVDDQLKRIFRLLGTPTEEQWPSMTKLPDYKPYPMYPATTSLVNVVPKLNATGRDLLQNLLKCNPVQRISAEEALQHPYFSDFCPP
T2 sequence (Q15078 whole entry partner): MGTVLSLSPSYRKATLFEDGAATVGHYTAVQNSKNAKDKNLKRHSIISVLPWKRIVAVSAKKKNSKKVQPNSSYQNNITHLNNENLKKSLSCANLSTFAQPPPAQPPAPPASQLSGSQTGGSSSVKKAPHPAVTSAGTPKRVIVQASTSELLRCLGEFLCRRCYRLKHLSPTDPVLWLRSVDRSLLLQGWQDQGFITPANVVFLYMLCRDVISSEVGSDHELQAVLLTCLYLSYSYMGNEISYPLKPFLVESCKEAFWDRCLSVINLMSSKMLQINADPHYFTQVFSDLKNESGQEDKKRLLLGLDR

[3] = test system: carrageenan-treated mice; experiment: Carrageenan assay, paw edema; assay type: in vivo; conditions: 30 mg/kg i.p. 30 min prior to carrageenan
Text: The model of carrageenan-induced paw edema constitutes a standard laboratory assay used to predict anti-inflammatory activity of therapeutically active compounds and reduction of inflammation-induced pain perception achieved by administration of therapeutically active compounds.
The basic measurement constitutes in the measurement of edema size and of mechanical as well as thermal hypersensitivity in response to irritants, such as carrageenan.
Inflammation and subsequent inflammatory pain is induced by subcutaneous injection of 25 μl of 1% carrageenan (in saline) into the hind paw (ipsi-lateral paw) of mice. Groups of 10 mice each received compound A, 30 mg/kg body weight, vehicle (DMA/Labrafil; 10:90) and saline (physiol. NaCl) by i.p. injection 30 min prior to carrageenan injection.
Paw edema induced by carrageenan injection was detected by increased paw size measured from dorsal to plantar at the metatarsus region of the injected (ipsi-lateral) paws. Sizes of ipsi- and contra-lateral paws (see FIG. 6, paw size [mm]) served as surrogate markers for inflammation and were measured at several time points after carrageenan injection: 1 h before injection (−1), immediately after injection, 1 h (1), 2 h (2), 4 h (4), 5 h (5), 6 h (6), 7 h (7), 24 h (24), 48 h (48), 72 h (72), 96 h (96), and 98 h (98) after injection. […]

T1 sequence (P06493 whole entry): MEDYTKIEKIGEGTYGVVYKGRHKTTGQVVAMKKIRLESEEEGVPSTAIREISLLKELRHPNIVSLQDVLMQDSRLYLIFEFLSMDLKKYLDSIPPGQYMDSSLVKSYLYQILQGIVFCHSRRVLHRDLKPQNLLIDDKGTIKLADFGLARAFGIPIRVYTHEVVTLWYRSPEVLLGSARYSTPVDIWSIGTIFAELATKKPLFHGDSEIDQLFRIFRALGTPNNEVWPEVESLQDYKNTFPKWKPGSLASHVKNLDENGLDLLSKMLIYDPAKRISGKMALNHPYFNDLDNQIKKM
T1 sequence (P14635 whole entry partner): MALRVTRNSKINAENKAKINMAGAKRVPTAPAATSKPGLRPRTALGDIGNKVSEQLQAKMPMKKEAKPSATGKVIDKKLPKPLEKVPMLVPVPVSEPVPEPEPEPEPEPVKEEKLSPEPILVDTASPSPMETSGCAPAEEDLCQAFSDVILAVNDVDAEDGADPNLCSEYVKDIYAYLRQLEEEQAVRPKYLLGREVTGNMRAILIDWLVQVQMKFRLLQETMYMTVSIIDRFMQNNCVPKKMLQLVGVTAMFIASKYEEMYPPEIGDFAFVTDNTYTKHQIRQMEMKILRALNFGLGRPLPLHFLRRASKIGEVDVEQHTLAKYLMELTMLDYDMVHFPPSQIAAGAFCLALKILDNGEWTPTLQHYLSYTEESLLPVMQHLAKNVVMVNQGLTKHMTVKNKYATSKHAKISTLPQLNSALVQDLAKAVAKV

IC50 [1]: 15.8 µM
IC50 [2]: 58.1 µM
Structure (SMILES): COc1ccccc1-c1cc(Nc2cccc(S(N)(=O)=O)c2)ncn1 [Compound A]
increase in paw size ([3]; 24 h after carrageenan injection (control mice 30%)): 8%
increase in paw size ([3]; within the first hour after carrageenan injection): 10%
